Calls of active or inactive are those of the source. No rule for the calls is given here.

The target of the test is RanGTP-importin-beta complex (human Ran / KPNB1). Kind of test: Ran–importin-beta interaction inhibitors, confirmation, biochemical, FRET, CFP/YFP, cell-free homogeneous (AID 2823). The following applies: CFP-Ran/YFP-importin-beta FRET ratio.
As a reminder, the IC50 is the concentration needed to halve the response being measured. Turning to `COc1cc2c(cc1OC)CN(Cc1cccs1)CC2`, the IC50 was > 50 µM (inactive). Take `Cc1ccc2nc(N3CCN(C(=O)c4ccc(F)cc4)CC3)c(C#N)cc2c1`: the IC50 was 23.3 µM.

For `CCOC(=O)N1CCN(c2cc(=O)n(Cc3ccc(F)cc3)c(=O)[nH]2)CC1`, the IC50 is > 50 µM (inactive). Regarding `c1ccc2c(c1)nc(NCC1CCCO1)c1nnnn12` (centres undefined), the IC50 was 30.3 µM.

With `N#Cc1cc2c(ccc3ccccc32)oc1=O`, the IC50 is > 50 µM (inactive). Take `Cc1ccc(NC(=O)Cn2nc(C(F)(F)F)c3c2CCC3)cc1`: the IC50 is > 50 µM (inactive). Take `Cc1sc(NC(=O)c2ccccc2)c(C#N)c1-c1ccccc1`: the IC50 is > 50 µM (inactive). With `Nc1nc2nc(-c3ccc(OCc4ccccc4)cc3)cc(C(F)(F)F)n2n1` the figure was 4.09 µM; with `O=C(c1cc(COc2ccc(F)cc2Cl)on1)N1CCCC(c2ccccc2)C1` (centres undefined), > 50 µM (inactive). In the case of `CCOC(=O)C1=C(C)NC2=C(C(=O)C(C(=O)OCC)C(c3ccc(OC)cc3)C2)C1c1ccccn1` (centres undefined) it was 28.4 µM; in that of `Cc1cc(C(=O)N/N=C2\CC(=O)CC(C)(C)C2)n[nH]1`, > 50 µM (inactive). In the case of `COC(=O)c1ccc2c(C(C)(C)O)c(C(C)(C)O)[nH]c2c1` it was > 50 µM (inactive). Regarding `COc1ccc(-c2c(C)sc(NC(=O)c3ccnn3C)c2C#N)cc1`, the IC50 was > 50 µM (inactive). Consider `CCCC(=O)NNc1c2ccccc2nc2ccccc12`, for which the IC50 was > 50 µM (inactive). Consider `COC(=O)Cc1c(C)c2cc(Cl)c(OC(=O)c3ccco3)cc2oc1=O`, for which the IC50 is 14.2 µM. Consider `COc1ccccc1CNC(=O)Cn1ccsc1=N`, for which the IC50 was > 50 µM (inactive). In the case of `O=C(CCN1C(=O)COc2ccccc21)N1CCCCC1` it was > 50 µM (inactive); in that of `O=C(c1cc2ccccc2oc1=O)N1CCN(CCc2ccccc2)CC1`, 6.7 µM.

As for `CC(c1nc2ccccc2n1Cc1ccccc1)N1CCCCC1` (centres undefined), the IC50 was > 50 µM (inactive).

In the case of `CCc1ccccc1NC(=O)/C(C#N)=C\c1ccc(Sc2ccccc2)o1`, the IC50 was > 50 µM (inactive). In the case of `CCCN1CC(O)=C(C#N)C1=O` it was > 50 µM (inactive); in that of `Cc1cc(C)c2c(n1)nn1c(NCCCN(C)C)cc(C)nc21`, 22.3 µM.

For `COc1ccc(C2NC(C(=O)O)Cc3c2[nH]c2ccccc32)cc1CN1CCN(c2ccc(F)cc2)CC1` (centres undefined), the IC50 is 7.68 µM. With `COc1ccccc1N=C(C)C1=C(O)CC(c2ccccc2)CC1=O` (centres undefined) the figure was > 50 µM (inactive); with `Cc1ccc(N2CCN(c3ccc(C)cc3)C2c2ccccn2)cc1`, > 50 µM (inactive).

Take `CC(C)OC(=O)c1c(N)n(CC2CCCO2)c2nc3ccccc3nc12` (centres undefined): the IC50 is 18 µM. With `Cc1ccc(-c2c(C#N)c(N)nc3c2CCCC3)s1` the figure was 25.7 µM; with `O=C(CCCO)NNc1c2ccccc2nc2ccccc12`, > 50 µM (inactive); with `Cc1c(CC(=O)O)c(=O)oc2c(C)c3occ(-c4ccc(F)cc4)c3cc12`, > 50 µM (inactive).

`CC(=O)Nc1cccc(C(=O)N/N=C/c2ccc(F)cc2)c1`: the IC50 is > 50 µM (inactive). Consider `O=C(Cn1nnc2ccccc21)N/N=C\c1cccs1`, for which the IC50 is > 50 µM (inactive). For the compound `Cc1c(O)ccc2c3c(c(=O)oc12)CCC(C)C3` (centres undefined), the IC50 is 11.9 µM.

Regarding `CCC(=O)N(CC(=O)Nc1sc(C)c(C)c1C(N)=O)C1CCCC1`, the IC50 was > 50 µM (inactive). In the case of `CCCc1c2ccccc2nc2ccccc12` it was 8.26 µM; in that of `Cc1ccc(C2=CC(c3ccccc3)n3ncnc3N2)c(C)c1` (centres undefined), > 50 µM (inactive). As to `COc1ccccc1C(=O)c1cc2ccc(O)cc2oc1=O`, the IC50 is 5.1 µM.

For the compound `Cc1ccccc1Cn1nnc(-c2cccc(C(=O)O)c2)n1`, the IC50 was > 50 µM (inactive). In the case of `OCCC1CN(Cc2cccn2-c2cccnc2)CCN1Cc1ccc(F)cc1` (centres undefined) it was > 50 µM (inactive); in that of `C=CCn1c(O)c(N=NC(=S)Nc2ccccc2F)c2cc(S(=O)(=O)N3CCOCC3)ccc21`, > 50 µM (inactive). Consider `CSc1nc(NCC(C)C)c2c3c(sc2n1)CN(C)CC3`, for which the IC50 was 44.2 µM. With `CC(C)Cc1nnc(NC(=O)Cc2cccs2)s1` the figure was > 50 µM (inactive); with `N=c1c(S(=O)(=O)c2ccc(Br)cc2)cc2c(=O)n3ccccc3nc2n1C1CCCCC1`, > 50 µM (inactive). In the case of `Cc1ccc2cc(C#N)c(N3CCCN(C(=S)NCCCN(C)C)CC3)nc2c1` it was 22.6 µM; in that of `COc1ccc(-c2cc(C(F)(F)F)n3nc(N)nc3n2)cc1`, 14.6 µM; in that of `O=C(O)c1cn(Cc2cccnc2)c(=O)c2ccccc12`, > 50 µM (inactive). With `CCN(CC(=O)Nc1cccc(S(=O)(=O)N2CCCCC2)c1)Cc1ccccc1` the figure was > 50 µM (inactive). As to `O=C(O)Cn1cc(/C=C2\SC(=O)N(c3ccccc3)C2=O)c2ccccc21`, the IC50 is 39.4 µM. With `COc1ccc(/C=C2\SC(=S)N(CC(=O)OCC(=O)Nc3ccc(C)cc3Cl)C2=O)cc1`, the IC50 was > 50 µM (inactive). Take `Nc1nc(N2CCOCC2)nc(N(c2ccccc2)c2ccccc2)n1`: the IC50 was > 50 µM (inactive).

For `CC(C)Sc1nnc(CNC(=O)C23CC4CC(CC(C4)C2)C3)n1C1CCCCC1`, the IC50 was > 50 µM (inactive).

`N#CC1=C(N)OC2=C(CCc3ccccc32)C1c1ccccc1` (centres undefined): the IC50 is > 50 µM (inactive). With `COc1ccc(Cn2c(O)c(C=Nc3ccc(OC)cc3)c3ccccc3c2=O)cc1` the figure was > 50 µM (inactive); with `COC(=O)c1ccc2nc(NC(=O)C(C)(C)C)sc2c1`, > 50 µM (inactive). Consider `O=c1cc(N2CCC3(CC2)OCCO3)[nH]c(=O)n1-c1ccc(Br)cc1`, for which the IC50 is > 50 µM (inactive). With `COc1ccc(-c2c(N)nnc3c2[nH]c2ccccc23)cc1OC`, the IC50 is > 50 µM (inactive). In the case of `Cc1ccc2nc(N3CCN(C(=O)c4cccs4)CC3)c(C#N)cc2c1` it was 17.7 µM; in that of `Cc1ccc(-c2ccc(/C=C(\C#N)C(N)=S)n2C)cc1`, > 50 µM (inactive); in that of `Cc1c(C=O)cnn1CCC(=O)O`, > 50 µM (inactive). With `COc1ccc(-n2c(N)c(C(=O)NCc3ccco3)c3nc4ccccc4nc32)c(OC)c1` the figure was 21.9 µM; with `O=c1cc(N2CCC(Cc3ccccc3)CC2)[nH]c(=O)n1C1CCCCC1`, > 50 µM (inactive); with `CSc1ncccc1C(=O)OCC(=O)c1cc2ccccc2o1`, > 50 µM (inactive).

As for `COc1ccc(C(=O)O)cc1S(=O)(=O)N(C)C`, the IC50 was > 50 µM (inactive). As for `O=C(NNc1c2ccccc2nc2ccccc12)c1ccc(Cl)cc1`, the IC50 is > 50 µM (inactive). As to `Cc1sc2nc(COC(=O)Cc3ccccc3)[nH]c(=O)c2c1C`, the IC50 was > 50 µM (inactive). `N#CC1=C(N)SC(N)=C(C#N)C1c1cccc(O)c1`: the IC50 was > 50 µM (inactive). As for `CCCCNC(=O)c1c(N)n(Cc2ccc3c(c2)OCO3)c2nc3ccccc3nc12`, the IC50 was 4.95 µM.

In the case of `COc1ccc(C(=O)C[n+]2ccc(N)c(C)c2C)cc1`, the IC50 was > 50 µM (inactive). For `CCOc1ccc(C)cc1S(=O)(=O)Nc1ccc(Cl)cn1`, the IC50 is > 50 µM (inactive). As for `CCN(CC)Cc1c(O)c(Cl)cc2c(C)c(C)c(=O)oc12`, the IC50 was 21.1 µM. With `CCN1CCN(Cc2c(O)c(Cl)cc3c(C)cc(=O)oc23)CC1` the figure was 33.4 µM. Turning to `CN(C)Cc1c(O)ccc2c3c(c(=O)oc12)CCCCC3`, the IC50 is 24.6 µM. With `c1c2c(cc3sc(N4CCOCC4)nc13)OCCO2` the figure was > 50 µM (inactive); with `C=CCN1C(=O)/C(=C\c2ccc(OC(=O)c3ccco3)c(OC)c2)SC1=S`, > 50 µM (inactive). In the case of `Cn1c(N)c(C(=O)COC(=O)C2(c3ccc(F)cc3)CCCC2)c(=O)n(C)c1=O` it was > 50 µM (inactive). As to `COc1ccc(NC(=O)/C(C#N)=C\c2ccc(N3CCOCC3)o2)cc1`, the IC50 was > 50 µM (inactive).

For `Cc1ccc(-n2c(=O)c(C#N)cc3c(=O)n4ccccc4nc32)cc1`, the IC50 was 1.99 µM. With `Cc1cccc2cc(C#N)c(NCCCn3ccnc3)nc12` the figure was 19.2 µM; with `CCN1C2=C(C(=O)CCC2)C(c2ccc(O)c(Br)c2)C2=C1CCCC2=O`, 7.86 µM; with `O=C(COC(=O)CSCC(=O)N1CCCCC1)Nc1ccc(Cl)cc1`, > 50 µM (inactive). With `Oc1c(C=Nc2ccccc2)sc2ccccc12` the figure was 27.6 µM. For `CCN(/N=C/C=C/c1ccccc1)c1cc(=O)n(C)c(=O)[nH]1`, the IC50 was > 50 µM (inactive). With `O=C(Cc1cc(=O)oc2cc(O)ccc12)NCC1CCC(C(=O)O)CC1` (centres undefined) the figure was 10.4 µM; with `NNC(=O)c1cc2nc(-c3cccs3)cc(C(F)(F)F)n2n1`, > 50 µM (inactive). Consider `O=C(/C=C/c1ccccc1[N+](=O)[O-])N1CCN(c2ccc(F)cc2)CC1`, for which the IC50 is > 50 µM (inactive). `COc1cc(CN2CCN(Cc3c[nH]c4ccccc34)CC2CCO)cc(OC)c1` (centres undefined): the IC50 was > 50 µM (inactive).

Turning to `CCc1ccc(S(=O)(=O)Nc2ccc(-c3nc4cccnc4s3)cc2)s1`, the IC50 is > 50 µM (inactive). With `CCOc1ccc(C2C(C(=O)OC)=CN(CCOC)C=C2C(=O)OC)cc1` the figure was 13.1 µM. With `CN(C)C=NC(=O)c1cc(C(=O)c2ccc(C(C)(C)C)cc2)c[nH]1` the figure was > 50 µM (inactive); with `COC(=O)c1cc(=O)n2c(sc3ccccc32)c1C#N`, 1.32 µM.

As to `O=C(Nc1ccnc(-c2ccncc2)n1)c1ccc(Cl)cc1`, the IC50 was > 50 µM (inactive). Regarding `CC1=C(C(=O)OCC2CCCO2)C(c2ccccc2OC(C)C)C2=C(CC(c3ccco3)CC2=O)N1` (centres undefined), the IC50 was 8.41 µM. With `O=C(O)c1c2c(nc3ccccc13)/C(=C/c1ccc(OC(F)F)cc1)CCC2` the figure was > 50 µM (inactive). In the case of `Cc1nc2[nH]c(=O)c3c(n2n1)NC1=C(C(=O)CC(C)(C)C1)C3c1ccccc1` (centres undefined), the IC50 was 3.37 µM.

For `Cc1cc(NCCN(C)C)n2nc(-c3cccs3)cc2n1`, the IC50 was 28.8 µM.

These data come from PubChem BioAssay AID2823 (Broad Institute, 2010).
